# Legend:
# 92 kDa gelatinase (MMP9) = 92 kDa gelatinase (MMP9) (Homo sapiens, UniProt P14780); test: MMP9 enzyme inhibition assay (fluorogenic peptide substrate McaPLGLDpaAR); type: biochemical; settings: recombinant human 92 kDa gelatinase, 37° C., 2 hours
# Description: (§1) Compounds were tested for inhibitory activity against 92 kDa gelatinase (MMP9) in an assay using a coumarin-labelled peptide substrate, (7-methoxycoumarin-4-yl)acetyl-Pro-Leu-Gly-Leu-(3-[2,4-dinitrophenyl]-L-2,3-diaminopropionyl)-Ala-Arg-NH2 (McaPLGLDpaAR) (Knight et al, FEBS Lett. 1992; 263-266).
# (§2) Stock solutions were made up as follows: • Assay Buffer: 100 mM Tris-HCl pH 7.6 containing 100 mM NaCl, 10 mM CaCl2, and 0.05% Brij 35 • Substrate: 0.4 mM McaPLGLDpaAR (from Bachem) (0.437 mg/ml) stock solution in 100% DMSO (stored at −20° C.). Dilute to 8 μM in assay buffer. • Enzyme: Recombinant human 92 kDa gelatinase (MMP-9; APMA (4-aminophenyl • mercuric acetate)—activated if necessary) appropriately diluted in assay buffer.
# (§3) Test Compounds were prepared initially as 10 mM compound solution in 100% DMSO, diluted to 1 mM in 100% DMSO, then serially diluted 3-fold in 100% DMSO across columns 1-10 of a 96-well microtitre plate Assay concentration range, 100 μM (column 1) to 5.1 nM (column 10)
# (§4) The assay was performed in a total volume of 100 μl per well in 96-well microtitre plates. Activated enzyme (20 μl) was added to the wells followed by 20 μl of assay buffer. Appropriate concentrations of test compounds dissolved in 10 μl of DMSO were then added followed by 50 μl of McaPLGLDpaAR (8 μM, prepared by dilution of DMSO stock in assay buffer). For each assay ten concentrations of test compound were examined in duplicate. Control wells lack either enzyme or test compound. The reactions were incubated at 37° C. for 2 hours. The fluorescence at 405 nm was measured immediately with an SLT Fluostar fluorometer (SLT Labinstruments GmbH, Grödig, Austria) using 320 nm excitation, without stopping the reaction.
# (§5) The effect of the test compound was determined from the dose response curve generated by the 10 duplicate concentrations of inhibitor. The IC50 (the concentration of compound required to give a 50% decrease in enzyme activity) was obtained by fitting data to the equation, Y=a+((b−a)/(1+(c/X)^d)). (Y=inhibition achieved for a particular dose; X=the dose in nM; a=minimum y or zero % inhibition; b=maximum y or 100% inhibition; c=is the IC50; d=is the slope). The result was rounded to one significant figure.
# metalloelastase (MMP12) = metalloelastase (MMP12) (Homo sapiens, UniProt P39900); test: MMP12 enzyme inhibition assay (fluorogenic peptide substrate McaPLGLDpaAR); type: biochemical; settings: protocol as for MMP9 assay
# Chain of metalloelastase (MMP12) (P39900 106-470): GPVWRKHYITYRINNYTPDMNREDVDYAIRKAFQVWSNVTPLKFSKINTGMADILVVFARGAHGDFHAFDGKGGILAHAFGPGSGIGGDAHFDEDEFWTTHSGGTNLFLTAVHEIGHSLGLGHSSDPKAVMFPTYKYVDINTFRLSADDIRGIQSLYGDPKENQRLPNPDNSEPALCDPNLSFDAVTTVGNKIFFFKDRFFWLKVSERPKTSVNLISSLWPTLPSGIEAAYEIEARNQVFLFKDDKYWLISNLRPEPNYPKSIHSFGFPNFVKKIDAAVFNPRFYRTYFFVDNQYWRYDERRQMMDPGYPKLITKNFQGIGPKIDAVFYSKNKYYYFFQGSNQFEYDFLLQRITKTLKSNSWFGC
# Description: as §2, §3, §4, §5
# as §1, with “metalloelastase (MMP12)” for “92 kDa gelatinase (MMP9)”, “263-266). The protocol for this assay was as described for the MMP9 assay above.” for “263-266).”
# [1] = system: CCl4-induced liver fibrosis; test: CCl4-induced liver fibrosis model; type: in vivo, Male Sprague-Dawley rats; settings: rat, CCl4 i.p.
# Excerpt: Carbon tetrachloride (CCl4) induces liver fibrosis when administered intraperitoneally (Bulbena O, Culat J, Bravo M L., Inflammation 1997 October; 21(5):475-88). Compounds of the invention can be evaluated for their ability to prevent the CCl4-induced formation of fibrotic tissue. Male Sprague-Dawley rats, 7 weeks old, weight approx. 300 g from Charles River/Iffa-Crédo, St-Germain/l'Arbresle, France. The study involved the following groups of 8 animals each, as indicated below. Group 1: “Sham” animals received CCl4 vehicle (i.p.) and once daily, the vehicle of test substance (s.c.) Group 2: Positive control group received CCl4 (i.p.), and once daily, the vehicle of the test substance (s.c.) Group 3: Experimental group received CCl4 (i.p.), and once daily, 2 mg/kg s.c. of the compound of Example 13. Group 4: Experimental group received CCl4 (i.p.), and once daily, 10 mg/kg s.c. of the compound of Example 13. Group 5: Experimental group received CCl4 (i.p.) and once daily, 20 mg/kg s.c. of the compound of Example 13. CCl4 (Prolabo) in olive oil was administered every 3 days for three weeks by intraperitoneal injection (0,25 ml CCl4/kg body weight, diluted in oil 1:1 vol:vol for a total volume of 0.5 ml/kg). Animals were weighed daily. If body weight decreased by more than 10% of the initial weight, the animal was excluded from the study. Vehicles and compound were used as follows: • CCl4 was administered in olive oil (prolabo) at a 1:1 dilution; • The compound of Example 13 was suspended in 0.25% Tween-80 and 0.25% carboxymethylcellulose in sterile 0.9% NaCl. The solution was kept at 4° C. throughout the experiment and used each day to prepare the suspensions. The compound of Example 13 was administered daily by subcutaneous (s.c.) injection at a volume of administration of 5 ml/kg. Groups 1 and 2 were dosed s.c. with 5 ml/kg of vehicle. Freshly prepared solutions were used on each day of the experiment. […] Plasma aspartate amino transferase (ASAT) and alanine amino transferase (ALAT) levels were measured in order to assess liver necrosis. […]
# [2] = compound s.c. once daily 2, 10, 20 mg/kg for 21 days, compared to vehicle (FIG. 1)
# Chain of 92 kDa gelatinase (MMP9) (P14780 107-707 limits assumed): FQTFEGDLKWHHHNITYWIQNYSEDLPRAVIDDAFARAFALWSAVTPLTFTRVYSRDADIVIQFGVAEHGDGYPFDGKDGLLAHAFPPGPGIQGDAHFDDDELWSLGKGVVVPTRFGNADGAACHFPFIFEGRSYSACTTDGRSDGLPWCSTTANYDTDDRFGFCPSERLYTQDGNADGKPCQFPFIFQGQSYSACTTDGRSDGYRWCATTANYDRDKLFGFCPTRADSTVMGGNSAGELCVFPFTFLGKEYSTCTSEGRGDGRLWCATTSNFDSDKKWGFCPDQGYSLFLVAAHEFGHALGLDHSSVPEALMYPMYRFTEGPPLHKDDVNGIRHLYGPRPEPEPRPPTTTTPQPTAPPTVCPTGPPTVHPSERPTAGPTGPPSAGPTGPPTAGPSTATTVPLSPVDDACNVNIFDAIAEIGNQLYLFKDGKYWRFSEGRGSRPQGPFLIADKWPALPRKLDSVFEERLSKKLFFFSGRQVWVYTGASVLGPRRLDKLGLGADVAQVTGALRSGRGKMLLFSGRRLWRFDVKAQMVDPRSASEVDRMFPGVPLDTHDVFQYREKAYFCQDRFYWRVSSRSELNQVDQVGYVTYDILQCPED
structure (smiles),measurement,setting,value
"CC(C)C[C@@H](C(=O)N[C@H](c1noc(-c2cccs2)n1)C(C)(C)C)[C@H](O)C(=O)NO [Example 13, 2S-Hydroxy-3R-[1S-(5-thiophen-2-yl-[1,2,4]oxadiazol-3-yl)-2,2-dimethyl-propylcarbamoyl]-5-methyl Hexanohydroxamic Acid]",IC50,92 kDa gelatinase (MMP9),100 to 1000 nM
same,IC50,metalloelastase (MMP12),< 100 nM
same,Plasma alanine amino transferase (ALAT) level,[1]; [2],clearly decreases
same,Plasma aspartate amino transferase (ASAT) level,[1]; [2],clearly decreases
same,Effect on the liver,"[1]; compound s.c. once daily, conclusion from ASAT and ALAT levels",protective effect on the liver

# Source: patent US20100035943A1, “Oxa-and thiadiazoles and their use as metalloproteinase inhibitors” (VERNALIS (OXFORD) LTD, priority 2002, published 2010)
